Assay results taken from PMC2287205 (Analytical and Bioanalytical Chemistry, 2008).

Assays:
[1] = molecular target: ERα (Homo sapiens, UniProt P03372); assay type: binding; details: mixture of five estrogenic compounds separated by gradient HPLC (Fig. 7)
[2] = Microsomal incubation with PB-induced rat liver microsomes; details: 100 μM zearalenone, 120 min, 37 °C

Chain of ERα (P03372 311-547): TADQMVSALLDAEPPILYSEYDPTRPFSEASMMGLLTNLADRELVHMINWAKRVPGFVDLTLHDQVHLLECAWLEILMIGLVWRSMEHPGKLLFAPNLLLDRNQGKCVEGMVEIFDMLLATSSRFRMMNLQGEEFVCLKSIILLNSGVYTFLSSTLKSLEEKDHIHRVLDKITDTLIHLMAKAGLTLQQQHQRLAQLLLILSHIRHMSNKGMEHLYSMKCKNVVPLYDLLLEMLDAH

SMILES	ERα bioaffinity detected in HRS ERα FP trace [1]	Metabolism by rat liver microsomes [2]
O=c1oc2cc(O)ccc2cc1-c1ccc(O)cc1 [coumarol, 7-Hydroxy-3-p-hydroxyphenylcoumarine]	possible to detect the ERα bioaffinities	
C[C@H]1CCCC(=O)CCC/C=C/c2cc(O)cc(O)c2C(=O)O1 [zearalenone]	possible to detect the ERα bioaffinities	metabolized by rat liver microsomes into at least three major metabolites
